Measured values taken from PubChem BioAssay AID330 (DTP/NCI, 2004).
Values joined by “and” are separate entries in the source; they are usually repeats but may differ in a detail not shown here. Equal values may be shown once. Toxic doses and inconclusive results are not listed. Rule for the calls: active = survival T/C of 150% or more; inactive = T/C below 125% in these data.

Tested on: P388 leukemia ip, CD2F1 mice, survival T/C
Assay: NCI In Vivo Anticancer Drug Screen. Data for tumor model P388 Leukemia (intraperitoneal) in CD2F1 (CDF1) mice
Conditions: endpoint: median survival time, higher = longer survival
Procedure, shortened: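 Mice carrying the transplanted tumor received test compound or vehicle. Survival was recorded in each group, and the value is the treated-group measurement divided by that of the vehicle-treated control group.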

[1] = dose: 50.0 mg/kg/injection, schedule: Q01DX005 (ip), vehicle: saline with Tween-80
[2] = dose: 100.0 mg/kg/injection, schedule: Q01DX005 (ip), vehicle: saline with Tween-80
[3] = dose: 200.0 mg/kg/injection, schedule: Q01DX005 (ip), vehicle: saline with Tween-80
[4] = dose: 50.0 mg/kg/injection, schedule: Q01DX009 (ip), vehicle: Klucel (hydroxypropylcellulose) (HPC)
[5] = dose: 50.0 mg/kg/injection, schedule: Q01DX005 (ip), vehicle: Klucel (hydroxypropylcellulose) (HPC)
[6] = dose: 100.0 mg/kg/injection, schedule: Q01DX005 (ip), vehicle: Klucel (hydroxypropylcellulose) (HPC)
[7] = dose: 200.0 mg/kg/injection, schedule: Q01DX005 (ip), vehicle: Klucel (hydroxypropylcellulose) (HPC)
[8] = dose: 25.0 mg/kg/injection, schedule: Q01DX005 (ip), vehicle: Klucel (hydroxypropylcellulose) (HPC)
[9] = dose: 100.0 mg/kg/injection, schedule: Q01DX009 (ip), vehicle: Klucel (hydroxypropylcellulose) (HPC)
[10] = dose: 200.0 mg/kg/injection, schedule: Q01DX009 (ip), vehicle: Klucel (hydroxypropylcellulose) (HPC)
[11] = dose: 60.0 mg/kg/injection, schedule: Q01DX005 (ip), vehicle: saline
[12] = dose: 120.0 mg/kg/injection, schedule: Q01DX005 (ip), vehicle: saline
[13] = dose: 240.0 mg/kg/injection, schedule: Q01DX005 (ip), vehicle: saline
[14] = dose: 50.0 mg/kg/injection, schedule: Q01DX009 (ip), vehicle: saline with Tween-80
[15] = dose: 100.0 mg/kg/injection, schedule: Q01DX009 (ip), vehicle: saline with Tween-80

Measured: T/C

CCCCOc1cccc2c(NCCNc3c4ccccc4nc4c(OCCCC)cccc34)c3ccccc3nc12
inactive: dose: 0.62 mg/kg/injection, schedule: Q01DX009 (ip), vehicle: other 105 % of control | dose: 1.25 mg/kg/injection, schedule: Q01DX009 (ip), vehicle: other 109 % of control | dose: 2.5 mg/kg/injection, schedule: Q01DX009 (ip), vehicle: other 101 % of control | dose: 5.0 mg/kg/injection, schedule: Q01DX009 (ip), vehicle: other 100 % of control | dose: 10.0 mg/kg/injection, schedule: Q01DX009 (ip), vehicle: other 100 % of control

COc1cc2c(cc1OC)C1CC3(CCN1CC2)CC(=O)OC3=O (stereo not drawn)
inactive: dose: 50.0 mg/kg/injection, schedule: Q01DX005 (ip), vehicle: DMSO 108 % of control | dose: 100.0 mg/kg/injection, schedule: Q01DX005 (ip), vehicle: DMSO 120 % of control | dose: 200.0 mg/kg/injection, schedule: Q01DX005 (ip), vehicle: DMSO 119 % of control

Cc1ccnc(NN=O)n1
inactive: dose: 3.12 mg/kg/injection, schedule: Q01DX009 (ip), vehicle: water 99 % of control | dose: 6.25 mg/kg/injection, schedule: Q01DX009 (ip), vehicle: water 113 % of control | dose: 12.5 mg/kg/injection, schedule: Q01DX009 (ip), vehicle: water 98 % of control | dose: 25.0 mg/kg/injection, schedule: Q01DX009 (ip), vehicle: water 100 % of control and 105 % of control | dose: 50.0 mg/kg/injection, schedule: Q01DX009 (ip), vehicle: water 113 % of control and 90 % of control | dose: 100.0 mg/kg/injection, schedule: Q01DX009 (ip), vehicle: water 100 % of control | dose: 200.0 mg/kg/injection, schedule: Q01DX009 (ip), vehicle: water 104 % of control

COC(=O)c1ccccc1N=NNc1ccccc1C#N
inactive: dose: 100.0 mg/kg/injection, schedule: Q01DX001 (ip), vehicle: Klucel (hydroxypropylcellulose) (HPC) 109 % of control | dose: 200.0 mg/kg/injection, schedule: Q01DX001 (ip), vehicle: Klucel (hydroxypropylcellulose) (HPC) 103 % of control | dose: 400.0 mg/kg/injection, schedule: Q01DX001 (ip), vehicle: Klucel (hydroxypropylcellulose) (HPC) 94 % of control

O=c1oc2ccccc2c(O)c1C1=N/C(=N/N=C/c2ccc(Cl)cc2)SC1
inactive: dose: 15.0 mg/kg/injection, schedule: Q01DX005 (ip), vehicle: Klucel (hydroxypropylcellulose) (HPC) 98 % of control | dose: 30.0 mg/kg/injection, schedule: Q01DX005 (ip), vehicle: Klucel (hydroxypropylcellulose) (HPC) 100 % of control | dose: 60.0 mg/kg/injection, schedule: Q01DX005 (ip), vehicle: Klucel (hydroxypropylcellulose) (HPC) 101 % of control and 87 % of control | dose: 60.0 mg/kg/injection, schedule: Q02DX002 (ip), vehicle: Klucel (hydroxypropylcellulose) (HPC) 97 % of control | dose: 120.0 mg/kg/injection, schedule: Q02DX002 (ip), vehicle: Klucel (hydroxypropylcellulose) (HPC) 89 % of control | dose: 240.0 mg/kg/injection, schedule: Q02DX002 (ip), vehicle: Klucel (hydroxypropylcellulose) (HPC) 93 % of control

CC(=O)N(Cc1ccccc1)c1nccs1
inactive: [1] 104 % of control | [2] 99 % of control | [3] 90 % of control

COc1c2ccoc2nc2c(OC)c3c(cc12)OCO3
inactive: dose: 6.25 mg/kg/injection, schedule: Q01DX009 (ip), vehicle: Klucel (hydroxypropylcellulose) (HPC) 105 % of control | dose: 12.5 mg/kg/injection, schedule: Q01DX009 (ip), vehicle: Klucel (hydroxypropylcellulose) (HPC) 99 % of control | dose: 25.0 mg/kg/injection, schedule: Q01DX009 (ip), vehicle: Klucel (hydroxypropylcellulose) (HPC) 94 % of control | [4] 94 % of control

Cc1nc2sc3c(c2c2nncn12)CCCC3
inactive: [5] 103 % of control | [6] 97 % of control | [7] 97 % of control

OC(C1=CCCCC1)(c1ccccc1)c1ccccc1
inactive: [8] 98 % of control | [5] 100 % of control | [6] 90 % of control | [7] 91 % of control

COc1ccc(NC(=O)c2sc(SC)nc2N)cc1
inactive: [4] 100 % of control | [9] 98 % of control | [10] 97 % of control

CCN(CC)CCn1nc2n(c(=O)c1=O)CC(=O)N(C)c1ccc(Cl)cc1-2
inactive: dose: 50.0 mg/kg/injection, schedule: Q01DX009 (ip), vehicle: saline 105 % of control | dose: 100.0 mg/kg/injection, schedule: Q01DX009 (ip), vehicle: saline 105 % of control | dose: 200.0 mg/kg/injection, schedule: Q01DX009 (ip), vehicle: saline 99 % of control

NCCc1c[nH]c2ccc(O)cc12 (tested in a mixture with another compound)
inactive: dose: 50.0 mg/kg/injection, schedule: Q01DX009 (ip), vehicle: other 113 % of control | [11] 102 % of control | dose: 100.0 mg/kg/injection, schedule: Q01DX009 (ip), vehicle: other 109 % of control | [12] 100 % of control | dose: 200.0 mg/kg/injection, schedule: Q01DX009 (ip), vehicle: other 91 % of control | [13] 99 % of control

O=C1OCC/C1=C\N1CCCCC1
inactive: [11] 102 % of control | [12] 100 % of control | [13] 106 % of control

O=C1/C(=C/c2ccccc2)CCC/C1=C\c1ccccc1
inactive: dose: 25.0 mg/kg/injection, schedule: Q01DX009 (ip), vehicle: saline with Tween-80 104 % of control | [14] 104 % of control | [15] 100 % of control

O=c1c(O)c(-c2ccccc2)c1=O
inactive: [8] 98 % of control | [5] 100 % of control | [6] 98 % of control

C[Si](C)(CNCCN)c1ccccc1
inactive: dose: 60.0 mg/kg/injection, schedule: Q01DX005 (ip), vehicle: saline with Tween-80 101 % of control | [11] 91 % of control | dose: 120.0 mg/kg/injection, schedule: Q01DX005 (ip), vehicle: saline with Tween-80 105 % of control | [12] 93 % of control | dose: 240.0 mg/kg/injection, schedule: Q01DX005 (ip), vehicle: saline with Tween-80 101 % of control

CCCCC(SC(CC)(C(N)=O)c1ccccc1)C(=O)O (stereo not drawn)
inactive: [14] 108 % of control | [15] 105 % of control | dose: 200.0 mg/kg/injection, schedule: Q01DX009 (ip), vehicle: saline with Tween-80 106 % of control | dose: 400.0 mg/kg/injection, schedule: Q01DX009 (ip), vehicle: saline with Tween-80 97 % of control

Cc1ccc(/C=N/S(=O)(=O)Cc2ccccc2)cc1
inactive: [4] 99 % of control | [9] 100 % of control | [10] 100 % of control

Nc1c(S(=O)(=O)O)cc(Br)c2c1C(=O)c1ccccc1C2=O
inactive: [1] 98 % of control | [2] 98 % of control | [3] 93 % of control

O=C1NC(=O)C(C23CCN(CC2)CC3)N1 (stereo not drawn)
inactive: dose: 100.0 mg/kg/injection, schedule: Q04DX003 (ip), vehicle: saline 101 % of control | dose: 200.0 mg/kg/injection, schedule: Q04DX003 (ip), vehicle: saline 100 % of control | dose: 400.0 mg/kg/injection, schedule: Q04DX003 (ip), vehicle: saline 107 % of control

c1ccc2c(-c3nc4ccccc4c4ccccc34)cccc2c1
inactive: [1] 108 % of control | [2] 108 % of control | [3] 95 % of control

CNC(=O)C1OCCOCCOC(C(=O)NC)C(C(=O)NC)OCCOCCOC1C(=O)NC (stereo not drawn)
inactive: [5] 96 % of control | [6] 98 % of control | [7] 97 % of control
